Calls of active or inactive are those of the source. The rule behind the calls is not given here.
Columns and labels:
[1] = tested on: MCF7; experiment: Cytotoxicity against human MCF7 cells assessed as reduction in cell viability incubated for 48 hrs with compound prepared under 365 nm UV light condition for 1 hrs by CellTIter blue reagent based fluorescence plate reader analysis
[2] = tested on: A549; experiment: Cytotoxicity against human A549 cells assessed as reduction in cell viability incubated for 48 hrs with compound prepared under 365 nm UV light condition for 1 hrs by CellTIter blue reagent based fluorescence plate reader analysis
[3] = tested on: HeLa; experiment: Cytotoxicity against human HeLa cells assessed as reduction in cell viability incubated for 48 hrs with compound prepared under dark condition by CellTIter blue reagent based fluorescence plate reader analysis
[4] = tested on: MCF7; experiment: Cytotoxicity against human MCF7 cells assessed as reduction in cell viability incubated for 48 hrs with compound prepared under dark condition by CellTIter blue reagent based fluorescence plate reader analysis; assay type: functional; details: MCF7, 48 h
[5] = tested on: A549; experiment: Cytotoxicity against human A549 cells assessed as reduction in cell viability incubated for 48 hrs with compound prepared under dark condition by CellTIter blue reagent based fluorescence plate reader analysis; assay type: functional; details: A549, 48 h
[6] = target: T1, Proteasome component C5 (Homo sapiens) (UniProt P20618); experiment: Inhibition of human 20S proteosome beta1 subunit using […] as substrate preincubated for 30 mins with compound prepared under dark condition followed by substrate addition and measured after 12 hrs by fluorescence plate reader analysis; details: time 12.5 hrs
T1 sequence (whole entry): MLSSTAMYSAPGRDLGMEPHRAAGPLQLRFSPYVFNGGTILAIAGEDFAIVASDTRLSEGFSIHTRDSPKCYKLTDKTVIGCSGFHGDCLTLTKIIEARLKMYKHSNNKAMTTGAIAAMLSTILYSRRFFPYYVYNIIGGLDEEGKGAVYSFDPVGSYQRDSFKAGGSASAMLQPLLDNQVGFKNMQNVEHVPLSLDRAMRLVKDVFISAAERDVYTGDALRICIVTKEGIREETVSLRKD

[7] = target: Proteasome Macropain subunit (Homo sapiens) (UniProt P49721); experiment: Inhibition of human 20S proteosome beta2 subunit using Bz-VGR-AMC as substrate preincubated for 30 mins with compound prepared under dark condition followed by substrate addition and measured after 12 hrs by fluorescence plate reader analysis; details: time 12.5 hrs
[8] = Retention time of compound by HPLC analysis; assay type: physicochemical
[9] = Half-life of compound under dark condition measured for 150 hrs at 6 hrs interval by UV-spectroscopy; assay type: physicochemical
[10] = target: T1, Proteasome component C5 (Homo sapiens); experiment: Inhibition of human 20S proteosome beta1 subunit using […] as substrate preincubated for 30 mins with compound prepared under 365 nm UV light condition for 1 hrs followed by substrate addition and measured after 12 hrs by fluorescence plate reader analysis; details: time 12.5 hrs
[11] = target: Proteasome Macropain subunit (Homo sapiens) (UniProt P49721); experiment: Inhibition of human 20S proteosome beta2 subunit using Bz-VGR-AMC as substrate preincubated for 30 mins with compound prepared under 365 nm UV light condition for 1 hrs followed by substrate addition and measured after 12 hrs by fluorescence plate reader analysis; details: time 12.5 hrs
[12] = tested on: HeLa; experiment: Cytotoxicity against human HeLa cells assessed as reduction in cell viability incubated for 48 hrs with compound prepared under 365 nm UV light condition for 1 hrs by CellTIter blue reagent based fluorescence plate reader analysis
[13] = Potency index, ratio of E-enrichment isomer IC50 to test compound (Z-enrichment isomer) IC50 for cytotoxicity against human HeLa cells assessed as reduction in c ell viability incubated for 48 hrs by CellTiter blue reagent based fluorescence plate reader analysis; assay type: functional
[14] = Potency index, ratio of E-enrichment isomer IC50 to test compound (Z-enrichment isomer) IC50 for cytotoxicity against human MCF7 cells assessed as reduction in c ell viability incubated for 48 hrs by CellTiter blue reagent based fluorescence plate reader analysis; assay type: functional
[15] = Potency index, ratio of E-enrichment isomer IC50 to test compound (Z-enrichment isomer) IC50 for cytotoxicity against human A549 cells assessed as reduction in c ell viability incubated for 48 hrs by CellTiter blue reagent based fluorescence plate reader analysis; assay type: functional

Chain of Proteasome Macropain subunit (Homo sapiens) (P49721 whole entry): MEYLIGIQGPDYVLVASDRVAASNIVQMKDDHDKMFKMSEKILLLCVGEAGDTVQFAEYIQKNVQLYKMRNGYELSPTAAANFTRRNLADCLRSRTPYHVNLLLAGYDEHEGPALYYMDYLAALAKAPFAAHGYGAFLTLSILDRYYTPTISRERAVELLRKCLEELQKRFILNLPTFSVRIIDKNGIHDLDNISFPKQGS

inhibition [6]	inhibition [7]	half-life [9] [h]	inhibition [10]	inhibition [11]	SMILES	IC50 [1] [µM]	IC50 [2] [µM]	IC50 [3] [µM]	IC50 [4] [µM]	IC50 [5] [µM]	IC50 [12] [µM]	other results
inactive	inactive				Cc1cc(C)cc(/N=N/c2cccc(C(=O)N[C@@H](CC(C)C)C(=O)N[C@@H](CC(C)C)C(=O)N[C@H](/C=C/S(C)(=O)=O)CC(C)C)c2)c1			0.42	8.36	2.56		Retention_time [8]: 11.1 min
		> 100	inactive	inactive	Cc1cc(C)cc(/N=N\c2cccc(C(=O)N[C@@H](CC(C)C)C(=O)N[C@@H](CC(C)C)C(=O)N[C@H](/C=C/S(C)(=O)=O)CC(C)C)c2)c1	4.39	0.73				0.28	Retention_time [8]: 13.5 min
		> 100	inactive	inactive	Cc1cc(C)cc(N=Nc2cccc(C(=O)N[C@@H](Cc3ccccc3)C(=O)N[C@@H](CC(C)C)C(=O)N[C@H](C=CS(C)(=O)=O)CC(C)C)c2)c1	7.51	1.9				0.32	
		> 100	inactive	inactive	Cc1cc(C)cc(/N=N\c2cccc(C(=O)N[C@H](C(=O)N[C@@H](Cc3ccccc3)C(=O)N[C@H](/C=C/S(C)(=O)=O)CC(C)C)C(C)C)c2)c1	2.25	6.95				2.9	
inactive	inactive				Cc1cc(C)cc(/N=N/c2cccc(C(=O)N[C@H](C(=O)N[C@@H](Cc3ccccc3)C(=O)N[C@H](/C=C/S(C)(=O)=O)CC(C)C)C(C)C)c2)c1			9.6	48.5	45.9		

Further lines, the compound ahead of its results:

SMILES	inhibition [6]	inhibition [7]	half-life [9] [h]	inhibition [10]	inhibition [11]	IC50 [1] [µM]	IC50 [2] [µM]	IC50 [3] [µM]	IC50 [4] [µM]	IC50 [5] [µM]	IC50 [12] [µM]	other results
CC(C)CC(NC(=O)[C@H](Cc1ccccc1)NC(=O)c1ccc(/N=N\c2ccccc2)cc1)B(O)O (some centres not stated)						6.7	17.3					
CC(C)C[C@H](NC(=O)[C@H](Cc1ccc(/N=N/c2ccccc2)cc1)NC(=O)OC(C)(C)C)B1OC2C[C@@H]3C[C@@H](C3(C)C)[C@@]2(C)O1 (some centres not stated)								38.2	40.1	52.5		
Cc1cc(C)cc(/N=N/c2cccc(C(=O)N[C@@H](Cc3c[nH]c4ccccc34)C(=O)N[C@@H](CC(C)C)C(=O)N[C@H](/C=C/S(C)(=O)=O)CC(C)C)c2)c1	inactive	inactive						0.285	10.6	1.98		
Cc1cc(C)cc(/N=N\c2cccc(C(=O)N[C@@H](Cc3c[nH]c4ccccc34)C(=O)N[C@@H](CC(C)C)C(=O)N[C@H](/C=C/S(C)(=O)=O)CC(C)C)c2)c1			> 100	inactive	inactive	5.44	0.42				0.25	
CC(C)C[C@H](NC(=O)[C@H](Cc1ccc(/N=N\c2ccccc2)cc1)NC(=O)OC(C)(C)C)B1OC2C[C@@H]3C[C@@H](C3(C)C)[C@@]2(C)O1 (some centres not stated)						27.9	66.4				38.1	Ratio IC50 [13]: 1; Ratio IC50 [14]: 1.4; Ratio IC50 [15]: 0.79
Cc1cc(C)cc(/N=N/c2cccc(C(=O)N[C@@H](Cc3ccccc3)C(=O)N[C@@H](CC(C)C)C(=O)N[C@H](/C=C/S(C)(=O)=O)CC(C)C)c2)c1	inactive	inactive						1.23	35.8	2.59		

From ChEMBL document CHEMBL6078644, “Azobenzene-Tagged Photopeptides Exhibiting Excellent Selectivity and Light-Induced Cytotoxicity in MCF-7 Cells over HeLa and A549” (J Med Chem, 2024)
